Test results as given in patent US9133257B2, “Antimicrobial peptides and derived metapeptides” (priority 1998, dated 2015).
Ends that are not written are not given here.

Assays:
[1] = system: relevant pathogens; experiment: microbicidal activity in vitro at pH 5.5 vs 7.2; assay type: cell-based
From the text: Our preliminary data provide a basis for our central discovery that PMPs have specific, independent determinants responsible for direct antimicrobial activities and potentiation of neutrophil antimicrobial functions. We have shown that these determinants can be isolated, optimized, and utilized to design novel mosaic peptides with selective antimicrobial properties. With a goal of designing novel therapeutics that have potent and selective antimicrobial functions and low toxicity, optimizing the activities of the distinct structural determinants in such peptides is essential.
Controls contain buffer alone or non-antimicrobial proteins and organism as above. Mixtures are incubated at 37° C. for up to 48 hours, after which aliquots are quantitatively cultured and incubated for 24 to 48 hours. Killing is expressed as decrease in logarithm10 surviving CFU/ml. The limit of sensitivity in microbicidal assays is considered to be a 1 log reduction in viable cells.

[2] = system: Streptococcus pneumonia ATCC 35088; parameters: key: R, resistant; S, sensitive; settings: control strain ATCC 35088; cited from earlier work
[3] = system: Enterococcus Faecalis ATCC 47707; parameters: key: R, resistant; S, sensitive; settings: control strain ATCC 47707; cited from earlier work
[4] = system: Pseudomonas aeruginosa ATCC 17468; parameters: key: R, resistant; S, sensitive; settings: control strain ATCC 17468; cited from earlier work
[5] = system: Staphylococus Aureus ATCC 27217; parameters: key: R, resistant; S, sensitive; settings: control strain ATCC 27217; cited from earlier work
[6] = system: Escherichia coli ATCC 43827; parameters: key: R, resistant; S, sensitive; settings: control strain ATCC 43827; cited from earlier work
[7] = system: Candida Lusitaniae ATCC 42720; parameters: key: R, resistant; S, sensitive; settings: control strain ATCC 42720; cited from earlier work
[8] = system: Candida Krusei ATCC 32672; parameters: key: R, resistant; S, sensitive; settings: control strain ATCC 32672; cited from earlier work
[9] = system: Candida Albicans ATCC 36082; parameters: key: R, resistant; S, sensitive; settings: control strain ATCC 36082; cited from earlier work
[10] = system: a spectrum of pathogens; experiment: antimicrobial spectra in vitro (radial diffusion assay)
Experimental: Inocula were 1×10^6 CFU/ml, and incubation conditions were pH 7.2 (RP-1, Sequence No. 3) or pH 5.5 (RP-13, Sequence No. 14), for 24 hours at 37° C.
We have used the agar radial diffusion assay to determine antimicrobial activities of proteins against microbial pathogens in vitro. One million colony forming units are mixed into 10 ml (i.e., 1×10^5 CFU/ml) of melted 1% agarose (in 10 mM NaHPO4 and cooled to 42° C.) containing minimal nutrient and adjusted to either pH 5.5 or pH 7.2. The agar is solidified in culture dishes, and sample wells are formed. Peptides at various concentrations are dissolved in 10 μl of 0.01% acetic acid buffer (pH 5.5 or 7.2), loaded into individual wells, and incubated at 37° C. for three hours. The plate is then overlayed with 1% agarose containing nutrients and incubated (37° C., for at least 24 hours). Peptides purified by RP-HPLC lacking antimicrobial activity are tested in parallel as controls. Zones of inhibition are measured to quantify antimicrobial activity.

[11] = system: Salmonella typhimurium strain 14028; experiment: susceptibility of Salmonella typhimurium strains; assay type: cell-based; settings: parental strain 14028
[12] = system: S. aureus strain 6850; experiment: flow cytometry of membrane depolarization (DiOC5), permeabilization (PI) and killing, PMP-susceptible strain; assay type: cell-based
From the text: (§1) Our recent studies have provided new evidence that PMPs differ in mechanisms of action from those of other antimicrobial peptides. We used flow cytometry to study the mechanisms of action of PMPs against S. aureus strain pair 6850 (PMP^S) and JB-1 (PMP^R) in vitro. Strain JB-1 is a menadione auxotroph of parent strain 6850, and has a decreased transcytoplasmic membrane potential (ΔΨ). We used the fluorescent probes dioxycarbocyanine (DiOC5) and propidium iodide (PI) to quantify the effects of PMP-2 and human defensin NP-1 (hNP-1) on ΔΨ and permeability, respectively. […] Menadione reconstituted the PMP^R strain ΔΨ to a level equivalent to the PMP^S strain. This was associated with increased depolarization, permeabilization, and killing of the PMP^R strain due to PMP-2. Therefore, the mechanism of PMP-2 action involves rapid, pH-dependent membrane permeabilization with membrane depolarization. These effects were different from hNP-1, or the cationic antibacterial agents protamine or gentamicin.
Flow cytometry can also be used to examine kinetics and mechanisms of the action of the peptides on bacterial membrane integrity and energetics. Peptides which differ in activity or specificity for their ability to depolarize and/or permeabilize microbial membranes can also be compared by analysis of membrane depolarization, and permeabilization. DiOC5 is a charged lipophilic dye which partitions into the cytoplasm, and is dependent on intact Δψ for intracellular retention. Organisms prepared as above are labeled in darkness for 30 minutes at about 20° C. in PBS containing 0.05 μM DiOC5. Organisms are resuspended to a concentration of 5×10^8 CFU/ml in K^+MEM containing an individual peptide, and incubated at 37° C. For flow cytometry, organisms are washed, sonicated, counted, and resuspended in K^+MEM buffer. Reductions in mean DiOC5 fluorescence relative to controls are interpreted to represent loss of DiOCs, indicating membrane depolarization. Positive control cells exposed to valinomycin, as well as control cells not exposed to any peptides, are analyzed for DiOC5 fluorescence in parallel.
Propidium iodide is excluded from cells with normal membrane integrity, but enters cells permealized to molecules ≧2 nm in diameter, and can be stimulated to emit fluorescence at >620 nm. […] Cells are washed in fresh K^+MEM, sonicated, counted, and resuspended in KIMEM buffer containing 20 μM propidium iodide. Control cells exposed to ethanol (positive control for permeabilization) are assessed for propidium iodide uptake in parallel. Increases in mean propidium iodide fluorescence relative to control cells are interpreted to indicate increases in permeability.

[13] = system: human neutrophils; experiment: intracellular killing of S. aureus by neutrophils; assay type: cell-based; settings: 2 hour time point, neutrophils lysed, quantitative culture
Experimental: (§2) We have initially studied the influence of PMP-2 on in vitro neutrophil phagocytosis and intracellular killing of S. aureus. In our preliminary experiments, a heterologous system was established employing human neutrophils, pooled normal human serum, or crude rabbit PMP-2. Organisms (5×10^7/ml) were pre-exposed to sub-lethal concentrations of serum or PMP-2 for 30 minutes, washed, mixed with neutrophils (20:1), and incubated at 37° C. for 2 hours. We observed a significant increase in phagocytosis of S. aureus when pre-exposed to PMP-2 (mean organisms/neutrophil=11.2), as compared with serum (mean organisms/neutrophil=6.4) or buffer control (mean organisms/neutrophil=3.7; P<0.05 for PMP-2 vs. serum or buffer). To quantify intracellular killing, neutrophils were lysed, and aliquots quantitatively cultured to enumerate surviving S. aureus cells.

[14] = system: S. aureus; experiment: transmission electron microscopy of bacterial cells after peptide exposure; assay type: cell-based; settings: 10 μg/ml, as little as 15-60 min
From the text: PMPs and tPMPs target and disrupt microbial cytoplasmic membranes. We have investigated morphologic consequences of rabbit PMP-2 and tPMP-1 exposure to bacterial cells, protoplasts, and lipid bilayers in vitro using transmission electron microscopy (TEM) and biophysical techniques. […] Ultrastructural damage precedes detectable bactericidal and bacteriolytic effects. […] It is important to reiterate that PMPs are likely released into the bloodstream in response to infection, such that they presumably accumulate locally at sites of infection to act directly and indirectly in antimicrobial host defense.

[15] = system: human neutrophils; experiment: neutrophil phagocytosis of S. aureus pre-exposed to sub-lethal PMP-2 or serum; assay type: cell-based; settings: organisms pre-exposed 30 minutes to sub-lethal concentrations, mixed with neutrophils (20:1), 37° C., 2 hours
Experimental: as §2

[16] = system: vascular endothelial cells; assay type: cell-based, human
From the text: (§3) The majority of known mammalian antimicrobial peptides have been localized within leukocytes (e.g., defensins), or secreted onto epithelial surfaces such as intestinal lumen or tracheal epithelium (e.g., cryptdins, tracheal antimicrobial peptide). Prohibitive levels of mammalian cell toxicity have been noted with many of these peptides when they have been tested as antimicrobial therapeutics. In contrast, PMPs exert potent in vitro microbicidal activity against a broad spectrum of bacteria and fungi under physiological conditions that exist in the intravascular space. Several PMPs are released from platelets stimulated with agonists associated with infection. Therefore, in response to tissue injury, PMPs are likely released into the mammalian bloodstream at localized sites of infection. […] These potencies compare favorably to potent conventional antimicrobial agents such as aminoglycosides or amphotericin B.
Endothelial cell injury due to peptides is measured using a standard chromium (^51Cr) release assay, described in Filler, S. G., et al., “Candida stimulates endothelial cell eicosanoid production” J Infect Dis. […] After a predetermined incubation period, the medium is aspirated and the amount of ^51Cr released into the medium is measured by scintillation. […]

[17] = system: human erythrocytes; assay type: cell-based
From the text: as §3
Four-percent (vol/vol) of washed human erythrocytes (in PBS alone, or in PBS plus 10% heat-inactivated PNHS are incubated with selected peptides ranging in concentration up to 100 times greater than geometric mean MICs. After 24 hours of incubation at 37° C., erythrocyte permeabilization and hemolysis are determined spectrophotometrically. Permeabilization and hemolysis will be compared to buffers alone, and with a triton X-100 control (100% hemolysis).

[18] = system: S. aureus strain JB-1; experiment: flow cytometry of membrane depolarization (DiOC5), permeabilization (PI) and killing, PMP-resistant strain; assay type: cell-based; settings: PMP-resistant strain JB-1 compared with PMP-susceptible strain
From the text: as §1, with “This was associated with increased depolarization, permeabilization, and killing of the PMP^R strain due to PMP-2. Therefore, the mechanism of PMP-2 action involves rapid, pH-dependent membrane permeabilization with membrane depolarization. These effects were different from hNP-1, or the cationic antibacterial agents protamine or gentamicin.” left out
Flow cytometry can also be used to examine kinetics and mechanisms of the action of the peptides on bacterial membrane integrity and energetics. […] For flow cytometry, organisms are washed, sonicated, counted, and resuspended in K^+MEM buffer. Reductions in mean DiOC5 fluorescence relative to controls are interpreted to represent loss of DiOCs, indicating membrane depolarization. Positive control cells exposed to valinomycin, as well as control cells not exposed to any peptides, are analyzed for DiOC5 fluorescence in parallel.
Propidium iodide is excluded from cells with normal membrane integrity, but enters cells permealized to molecules ≧2 nm in diameter, and can be stimulated to emit fluorescence at >620 nm. […]

H-ATKKNGRKLCLDLQAAL-OH [PMP-246-63]
pH dependence of microbicidal activity [1]: significantly amplified at pH 5.5 as compared to pH 7.2

CN[C@H](CC(C)C)C(=O)N[C@H]1C(=O)N[C@@H](CC(N)=O)C(=O)N[C@H]2C(=O)N[C@H]3C(=O)N[C@H](C(=O)N[C@H](C(=O)O)c4cc(O)cc(O)c4-c4cc3ccc4O)[C@H](O)c3ccc(c(Cl)c3)Oc3cc2cc(c3O[C@@H]2O[C@H](CO)[C@@H](O)[C@H](O)[C@H]2O[C@H]2C[C@](C)(N)[C@H](O)[C@H](C)O2)Oc2ccc(cc2Cl)[C@H]1O [Van, vancomycin]
Antibiotic Resistance Phenotype [2]: S | Antibiotic Resistance Phenotype [3]: R | Antibiotic Resistance Phenotype [4]: R | Antibiotic Resistance Phenotype [5]: S | Antibiotic Resistance Phenotype [6]: S

OC(Cn1cncn1)(Cn1cncn1)c1ccc(F)cc1F [Flu, fluconazole]
Antibiotic Resistance Phenotype [7]: R | Antibiotic Resistance Phenotype [8]: R | Antibiotic Resistance Phenotype [9]: S

C[C@@H]1[C@H](O)[C@@H](C)/C=C/C=C/C=C/C=C/C=C/C=C/C=C/[C@H](O[C@@H]2O[C@H](C)[C@@H](O)[C@H](N)[C@@H]2O)C[C@@H]2O[C@](O)(C[C@@H](O)C[C@@H](O)[C@H](O)CC[C@@H](O)C[C@@H](O)CC(=O)O[C@H]1C)C[C@H](O)[C@H]2C(=O)O [Amb, amphotericin B]
Antibiotic Resistance Phenotype [7]: R | Antibiotic Resistance Phenotype [8]: S | Antibiotic Resistance Phenotype [9]: S

ALYKKFKKKLLKSLKRLG [RP-1]
pH optima for microbicidal activity [10]: 7.2 pH | concentration for microbicidal activity ([10]; in vitro): nanomolar concentration

hNP-1: human neutrophil defensin NP-1
susceptibility of strain [11]: intrinsically resistant | pH dependence of membrane permeabilization ([12]; pH 7.2 vs pH 5.5): greater at pH 7.2 than at pH 5.5 | membrane permeabilization, PMP-susceptible vs PMP-resistant strain ([12]; strains 6850 and JB-1 compared): equivalent

B1: PMP-2: 74 residue rabbit platelet microbicidal protein, variant of PMP-1, analogue of rPF-4 (protein, listed as Oryctolagus cuniculus)
chain: SDDPKESEGDLHCVCVKTTSLVRPRHITNLELIKAGGHCPTANLIATKKNGRKLCLDLQAALYKKKIIKKLLES
susceptibility of strain [11]: as susceptible to PMP-2 as hNP-1 hypersusceptible strains 4252s and 5996s | S. aureus cells surviving intracellular killing [13]: 23.8% | ultrastructural damage (TEM) [14]: Rapid cytoplasmic membrane disruption, followed by cell wall swelling | depolarization, permeabilization and killing ([12]; PMP-susceptible strain 6850): rapidly depolarized, permeabilized, and killed | pH dependence of depolarization, permeabilization and killing ([12]; pH 5.5 vs. pH 7.2): significantly greater at pH 5.5 vs. pH 7.2 | phagocytosis of S. aureus, mean organisms/neutrophil [15]: 11.2 organisms/neutrophil | damage of vascular endothelial cells [16]: minimal damage | damage of human erythrocytes [17]: minimal damage | depolarization, permeabilization and killing [18]: significantly less | pH dependence of microbicidal activity [1]: significantly greater microbicidal activity at pH 5.5 vs. 7.2
